Measured values reported in ChEMBL document CHEMBL5029153, “Structural Insights into Notum Covalent Inhibition” (J Med Chem, 2021).

Experiments:
[1] = target: T1, Palmitoleoyl-protein carboxylesterase NOTUM (Homo sapiens, UniProt Q6P988); assay: Binding affinity to glycosylated Notum 1 (unknown origin) assessed as change in melting temperature at 30 uM by SYPRO orange dye based thermal shift assay
T1 sequence (Q6P988 whole entry): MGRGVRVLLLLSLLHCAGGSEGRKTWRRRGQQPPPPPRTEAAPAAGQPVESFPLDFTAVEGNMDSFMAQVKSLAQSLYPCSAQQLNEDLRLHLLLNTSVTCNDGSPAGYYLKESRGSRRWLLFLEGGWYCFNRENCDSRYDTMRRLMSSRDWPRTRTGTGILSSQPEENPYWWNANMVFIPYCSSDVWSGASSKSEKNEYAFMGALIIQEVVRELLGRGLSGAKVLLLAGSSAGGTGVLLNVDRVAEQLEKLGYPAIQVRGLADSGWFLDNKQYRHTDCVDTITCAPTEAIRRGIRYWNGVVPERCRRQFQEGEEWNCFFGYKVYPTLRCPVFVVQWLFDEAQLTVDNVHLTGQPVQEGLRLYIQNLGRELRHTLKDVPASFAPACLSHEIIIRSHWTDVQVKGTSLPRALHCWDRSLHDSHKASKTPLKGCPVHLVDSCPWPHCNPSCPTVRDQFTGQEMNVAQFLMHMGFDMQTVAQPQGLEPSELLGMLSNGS

[2] = target: T1, Palmitoleoyl-protein carboxylesterase NOTUM; assay: Binding affinity to glycosylated Notum 1 (unknown origin) assessed as maximum change in melting temperature at 1 mM by SYPRO orange dye based thermal shift assay; conditions: 1000 µM
[3] = target: T1, Palmitoleoyl-protein carboxylesterase NOTUM; assay: Inhibition of Notum 1 (unknown origin) expressed in HEK293 cells harbouring TCF/LEF luciferase reporter gene assessed as modulation of Wnt/beta-catenin signalling pathway preincubated with recombinant Wnt-3A for 1 hr followed by addition to reporter cell plate incubated overnight by luminescence based microplate reader analysis
[4] = target: T1, Palmitoleoyl-protein carboxylesterase NOTUM; assay: Binding affinity to glycosylated Notum 1 (unknown origin) assessed as change in melting temperature at 8 uM by SYPRO orange dye based thermal shift assay

Structure (SMILES) | deltaTm [1] [°C] | deltaTm [2] [°C] | EC50 [3] [nM] | deltaTm [4] [°C]
O=C(O)CCC(=O)N1CCc2ccccc21 | 1 | 2.5 |  | 
O=C(CCC(=O)N1CCc2ccccc21)OCC(F)F |  |  | 300 | 
COC(=O)CCC(=O)N1CCc2ccccc21 | 5 | 10 |  | 2
